Laboratory results: patent publication US20220184091A1, “Methods of Treating Cancer with Chk1 Inhibitors” (Sierra Oncology, Inc., priority 2019, published 2022)

Experiments:
IFNβ, CXCL10 and CCL5 = assay: qPCR of IFNβ, CXCL10 and CCL5 in resected RPP tumors; assay type: in vivo, mouse
Experimental: Data presented as mean±SD and p values by t-test * p<0.05, **p<0.01, ***p<0.001.
Real-time PCR was done using SYBR Select Master Mix (Life Technologies, cat #4472908) according to the manufacturer's protocol. Primers were purchased from Sigma Aldrich, Inc. Triplicate PCR reactions were run on ABI (7500 Fast Real Time PCR System). The comparative Ct method using the average 2ΔΔCT value for each set of triplicates was used, and the average of the biological replicates was calculated. Negative controls were included for every primer set, and GAPDH was used as the […].

H69 = assay: Micronuclei assay, H69; assay type: cell-based, human; settings: 1 μM, 24 hours or 48 hours
Experimental: H69 cells were cultured as discussed earlier and treated with or without SRA737 (1 μM). Cytochalasin B was added at 20th hour to each culture to give a final concentration of 3 μg/ml and the culture was incubated at 37° C. for up to 24 hrs. After 24 hrs incubation, the cells were centrifuged at 1000 rpm for 5 min. The supernatant was removed and the pellet was treated with weak hypotonic solution (0.075 M KCl/0.9% Saline, 1:9) and incubated at 37° C. for 5 min. After this, the cells were centrifuged and the pellets were fixed in fresh fixative (methanol:acetic acid, 3:1). Cells were dropped onto glass slides were prepared and stained with ProLong® Gold Antifade Mountant with DAPI. In the case of EMT-6 cells, micronuclei formation assays were performed at Phenovista Biosciences, San Diego. The cells were treated with either 1 μM or 5 μM SRA737 for 24h followed by mixing with 4% PFA for 20 minutes at RT directly in the culture wells, washing with PBS and staining with Hoechst (1:1000). The plates were imaged at 40× using the Thermo Fisher Scientific CellInsight CX7 imaging system and the micronuclei algorithm was adjusted to score all nuclei that are <55% of the size of the main nucleus. A total of 25 fields per well were imaged and the data was averaged across 8 replicates.
SRA737 was also evaluated for induced cytogenetic stress using a micronuclei (MN) assay.

STING pathway = assay: Immunoblot of STING pathway proteins in resected RPP tumors; assay type: in vivo, mouse; settings: RPP tumors resected at Day 21
Experimental: Western blot analysis was performed using SDS-PAGE followed by transfer to nitrocellulose membrane using the BioRad Gel system. Membranes were incubated in the following primary antibodies (1:1000) overnight: PD-L1 (CST), total and phospho- (S366) STING (CST), total and phospho- (S396) IRF3 (CST), phospho-YH2AX (CST) and Actin (Sigma). Secondary anti-rabbit, HRP-linked antibodies were purchased from Cell Signaling Biosciences and detected using the Chemidoc imaging system mage-captured with Image Studio Version 3.1 software.

[1] = biological target: T1, Chk1 S296 autophosphorylation (Homo sapiens, UniProt O14757); assay: Gemcitabine-induced Chk1 S296 autophosphorylation in HT29 tumor xenografts (western blotting); assay type: in vivo, mouse; settings: mice bearing HT29 xenografts; oral, 24 hours after gemcitabine 100 mg/kg IV
T1 construct: mice bearing HT29 tumor xenografts were administered; endogenous in cells; host or cells: HT29 human colon cancer xenografts in mice
Experimental: The effect of SRA737 on Gemcitabine induced Chk1 S296 autophosphorylation was assessed as described in Walton et al. (Oncotarget. 2016 Jan. 19; 7(3): 2329-2342), herein incorporated by reference for all it teaches. Briefly, mice bearing HT29 tumor xenografts were administered (i) vehicle control or (ii) gemcitabine (100 mg/kg in saline, IV) or (iii) a combination of SRA737 (12.5, 25, 50 or 100 mg/kg in DTPW, oral) and gemcitabine (100 mg/kg) with SRA737 administered 24 hours following gemcitabine administration (n=3 per time point per treatment). […] Exposure in the tumor was greater than 10-fold higher than in plasma. The circulating plasma concentration at this 24-hour timepoint corresponded to a free drug concentration of approximately 6 nM (2 ng/mL) based on plasma protein binding in mice of 94%.

[2] = Excretion of SRA737 in rats; assay type: in vivo; settings: rat; over 24 hours
Experimental: The excretion of SRA737 has been studied in mice and rats administered SRA737 at either 5 mg/kg IV or 10 mg/kg orally. Urine and feces were collected for a 24-hour period after dosing. In mice, renal excretion of intact SRA737 was consistently low (less than 10% of dose) after both oral and IV administration. Following IV administration of SRA737, less than 8% of the dose was recovered as intact drug in the feces while after oral administration this figure was less than 3%. Excretion of intact SRA737 was lower in the rat than in the mouse with <1% of dose excreted renally over 24 hours and less than 1.5% of dose excreted into the feces over 24 hours.

SCLC cell lines = assay: CellTiter-Glo cell viability assay, SCLC cell line panel; assay type: cell-based, human and murine; settings: 96 h
Experimental: SCLC cell lines were incubated with dimethyl sulfoxide (vehicle control), SRA737 or Gemcitabine for 96 hours at nine distinct concentrations, with the maximum dose being 10 μM. A CellTiter-Glo luminescent cell viability assay (Promega) was performed after 96 hours of treatment as per the manufacturer's specifications. IC50 values were estimated using Drexplorer, as previously described (Tong P, Coombes K R, Johnson F M, Byers L A, Diao L, Liu D D, Lee J J, Heymach J V, Wang J. drexplorer: A tool to explore dose-response relationships and drug-drug interactions. Bioinformatics. 2015 May 15; 31(10):1692-4.)
To investigate the in vitro activity of SRA737, a panel of 51 SCLC cell lines, including one murine derived model, and a panel of NSCLC, pancreatic, colon and bladder cancer cell lines were screened.

[3] = Phase 1 clinical study, SRA737 in combination with gemcitabine, dose escalation; assay type: in vivo; settings: human, mean
Experimental: A Phase 1 clinical trial was conducted in ‘all comers,’ i.e. no genetic selection was performed, to establish safety, tolerability and pharmacokinetics for SRA737 administered in combination with gemcitabine (“Dose Escalation Phase”). Cohorts consisting initially of a single subject received escalating doses of SRA737, starting in Cohort 1 with 40 mg/day administered orally on days 2, 3, 9, 10, 16, and 17 of each 28-day cycle. Cohorts also received various doses of gemcitabine, starting in Cohort 1 with 300 mg/m^2/day administered IV over 30 minutes on days 1, 8, and 15 of each 28-day cycle.
FIG. 5 presents a summary of dosing amounts for the cohorts tested. In the Dose Escalation Phase, a total of 55 subjects received SRA737 in 13 dose escalation cohorts at doses of 40 to 600 mg SRA737 combined with LDG doses of 50 to 300 mg/m^2.

[4] = 600 mg, Day 10, combination with gemcitabine

T1 sequence (O14757 whole entry): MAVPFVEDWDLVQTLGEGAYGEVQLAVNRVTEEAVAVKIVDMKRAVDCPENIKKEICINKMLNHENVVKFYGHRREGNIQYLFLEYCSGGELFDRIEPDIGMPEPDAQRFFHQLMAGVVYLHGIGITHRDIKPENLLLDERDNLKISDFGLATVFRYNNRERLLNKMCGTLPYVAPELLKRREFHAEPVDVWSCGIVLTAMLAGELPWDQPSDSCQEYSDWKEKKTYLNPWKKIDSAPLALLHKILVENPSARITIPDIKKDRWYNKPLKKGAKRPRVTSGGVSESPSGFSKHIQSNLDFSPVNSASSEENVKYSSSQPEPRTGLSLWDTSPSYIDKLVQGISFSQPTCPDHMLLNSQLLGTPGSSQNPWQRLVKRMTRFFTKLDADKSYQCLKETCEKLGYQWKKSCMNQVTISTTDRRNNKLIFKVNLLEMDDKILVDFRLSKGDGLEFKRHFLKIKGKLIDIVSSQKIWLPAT

SMILES: N#Cc1cnc(Nc2cc(NCC3CNCCO3)c(C(F)(F)F)cn2)cn1 (stereo not drawn) [SRA737, 5-[[4-[[morpholin-2-yl]methylamino]-5-(trifluoromethyl)-2-pyridyl]amino]pyrazine-2-carbonitrile]
- gene expression levels of IFNβ, CXCL10 and CCL5 vs vehicle (IFNβ, CXCL10 and CCL5; RPP tumors at Day 21, 100 mg/kg 5-days-on/2-days-off): higher gene expression levels
- expression of IFNβ, CCL5 and CXCL10 (IFNβ, CXCL10 and CCL5; RPP tumors resected at Day 21, SRA737 2-days-on/5-days-off): Neither LDG nor SRA737 monotherapy (2-days-on/5-days-off) showed any significant effect
- micronuclei formation (H69): led to micronuclei formation
- STING pathway incl. pSTING_S366, pTBK1_S172, cGAS, pIRF3_S396 in tumors (STING pathway): significant activation of the STING pathway
- SRA737 doses at which inhibition of pS296 Chk1 was observed [1]: greater than or equal to 12.5 mg/kg
- dose excreted into the feces [2]: less than 1.5 % of dose
- dose excreted renally [2]: < 1 % of dose
- IC50 (SCLC cell lines; SCLC cell lines classified resistant (n=35)): > 5 µM
- IC50 (SCLC cell lines; SCLC cell lines classified sensitive (n=15)): < 5 µM
- AUC0-24 ([3]; 40 mg, Day −7): 637 ng·h/mL
- Cmax ([3]; 80 mg, Day −7): 146 ng/mL
- Cmax ([3]; 300 mg, Day −7): 995 ng/mL
- AUC0-12 [3, 4]: 11,860 ng · h/mL
- Cmax [3, 4]: 2,109 ng/mL
- T1/2 ([3]; 600 mg, Day −7): 11.1 h
